Assay results reported in US11629135B2 (JUBILANT PRODEL LLC, priority 2017, dated 2023).

What was measured:
[1] = biological target: T1, CYP 2D6 (Homo sapiens, UniProt P10635); assay: CYP inhibition in human liver microsomes (CYP2D6); type: in vitro ADME; settings: hydroxylation of bufuralol, read-out: predicted IC50, CYP 2D6
T1 construct: assessed in human liver microsomes (procured from GIBCO Invitrogen); tissue GIBCO Invitrogen; host or cells: human liver microsomes
Procedure: (§1) CYP inhibition potential of compound was assessed in human liver microsomes (procured from GIBCO Invitrogen) against CYP3A4, 2D6, 2C9, 2C19 and 1A2 in the following sequential steps. Standard reaction mixture (final volume 300 μL) contained […] potassium phosphate buffer (pH 7.4), protein (0.1, 0.25, 0.5, 0.5 and 0.5 mg/mL concentration for CYP3A4, 2D6, 2C9 2C19 and 1A2 respectively) and compound (at eight different concentration levels ranging from […], added as 0.9 μL DMSO solution with a final DMSO concentration of […]). The mixtures were pre-incubated at 37±1° C. for 5 min. The reaction (in duplicate) was initiated by addition of 30 μL of NADPH (10 mM). Reaction was terminated at 10 min by adding 300 μL of acetonitrile. The activity of liver microsomes was confirmed with positive controls i.e., monitoring the hydroxylation of midazolam for CYP 3A4, hydroxylation of bufuralol for CYP 2D6, hydroxylation of diclofenac for CYP 2C9, hydroxylation of omeprazole for CYP2C19 and O-Deethylation for CYP 1A2. The reaction mixtures (obtained from the above studies) were extracted, processed and analyzed by LC-MS [Shimadzu SIL LC series (Kyoto, Japan) was coupled to an API-4000 Mass Spectrometer (MDS Sciex, Toronto, Canada)].

[2] = biological target: T2, CYP3A4 (Homo sapiens, UniProt P08684); assay: CYP inhibition in human liver microsomes (CYP3A4); type: in vitro ADME; settings: hydroxylation of midazolam, read-out: predicted IC50, CYP 3A4
T2 construct: assessed in human liver microsomes (procured from GIBCO Invitrogen); tissue GIBCO Invitrogen; host or cells: human liver microsomes
Procedure: as §1

[3] = biological target: T3, PD-1/PD-L1 interaction (Homo sapiens, UniProt Q9NZQ7); assay: PD-1/PD-L1 Homogenous Time-Resolved Fluorescence (HTRF) binding assay; settings: Biochemical PD1/PD-L1 inhibition
T3 construct: Tag1 or Tag2 (undisclosed kit tag); purchased CisBio 63ADK000CPAPEG
Procedure: PD-L1 Enzyme Assay: Homogenous Time-Resolved Fluorescence (HTRF) Binding Assay
All binding studies were performed using PD-1/PD-L1 Binding Assay Kit from CisBio (Catalog #63ADK000CPAPEG), according to the manufacturer's protocol. The interaction between Tag1-PD-1 and […] was detected by anti-Tag1-Eu^3+ (HTRF donor) and anti-Tag2-XL665 (HTRF acceptor). When the donor and acceptor antibodies were brought to close proximity due to PD-1 and PD-L1 binding, excitation of the donor antibody triggered fluorescent resonance energy transfer (FRET) towards the acceptor antibody, which in turn emitted specifically at 665 nm. This specific signal is positively proportional to PD-1/PD-L1 interaction. The compounds blocking PD-1/PD-L1 interaction will cause a reduction in HTRF signal. The necessary reagents were mixed in the following order: 2 μl compounds (or diluents buffer), 4 μl PD-L1 protein, 4 μl PD-1 protein. After an incubation of 15 minutes, 5 μl of anti-Tag1-Eu^3+ and 5 μl of anti-Tag2-XL665 were added. The plate was sealed and incubated at RT for 1 h. The fluorescence emission was read at two different wavelengths (665 nm and 620 nm) on a BMG PheraStar® multiplate reader. Results were calculated from the 665 nm and 620 nm fluorescence signal and expressed in HTRF ratio=(665 nm/620 nm)×[…].

[4] = tested on: Caco-2 human intestinal epithelial cells; assay: Caco-2 permeability; type: in vitro ADME; settings: 5 μM, bi-directional, 60 min
Procedure: Procedure: Caco-2 human intestinal epithelial cells were plated in 24-Transwell® dual chamber plates (Millipore, Billerica, Mass., USA) (cell density of 80,000 cells/cm^2 on day-1). The permeability studies were conducted with the monolayers cultured for 21 to 22 days in culture. The integrity of each Caco-2 cell monolayer was certified by trans epithelial electrical resistance (TEER) test (pre-experiment) and by determining the permeability of reference compound i.e., Lucifer yellow. Caco-2 cell monolayers with TEER values greater than 500 Ωcm^2 were considered for experimentation. Digoxin (5 μM) was used as a positive control for P-gp substrate. The concentrations of compound used in the assay was 5 μM. HBSS Buffer was used as the medium for the transport assay and the final concentration of DMSO in spiking solution was 0.05%. The bi-directional permeability study was initiated by adding an appropriate volume of HBSS buffer containing compound to respective apical and basolateral chambers (n=3). An aliquot of sample (100 μL) was taken from both chambers at 0 and 60 min of the incubation period and to this equal volume of acetonitrile was added, mixed gently and centrifuged at 4000 rpm for 10 min. An aliquot of 100 μL was subsequently transferred to the auto-sampler and 10 μL was injected for analysis on LC-MS/MS.

[5] = Plasma protein binding by equilibrium dialysis; type: in vitro ADME, mouse; settings: pH 7.4; mouse plasma, 3 μM, equilibrium dialysis 4.5 h
Procedure: (§2) To evaluate the ability of compound to bind the plasma proteins, the most common approach of plasma protein binding using equilibrium dialysis was used. Compound was tested at a final concentration of 3 μM in mouse, rat, human or dog plasma. An aliquot of 150 μL plasma containing compound was added in first half (plasma side) of the well of 96-well micro-equilibrium dialysis device. An aliquot of 150 μL of 100 mM sodium phosphate buffer pH 7.4 was added in the second half (buffer side) of the well of 96-well HT equilibrium dialysis device. The plate containing plasma and buffer was equilibrated at 37±1° C. for 4.5 h, with constant shaking at 120 rpm on an orbital shaker. Samples were collected from respective halves after the completion of incubation time. The proteins were precipitated using organic solvents. The samples were subjected to centrifugation and the supernatants were analyzed analysis on LC-MS/MS.

[6] = tested on: plasma proteins; assay: Plasma protein binding by equilibrium dialysis; type: in vitro ADME, mouse; settings: plasma, equilibrium dialysis
Procedure: as §2

T1 sequence (P10635 whole entry): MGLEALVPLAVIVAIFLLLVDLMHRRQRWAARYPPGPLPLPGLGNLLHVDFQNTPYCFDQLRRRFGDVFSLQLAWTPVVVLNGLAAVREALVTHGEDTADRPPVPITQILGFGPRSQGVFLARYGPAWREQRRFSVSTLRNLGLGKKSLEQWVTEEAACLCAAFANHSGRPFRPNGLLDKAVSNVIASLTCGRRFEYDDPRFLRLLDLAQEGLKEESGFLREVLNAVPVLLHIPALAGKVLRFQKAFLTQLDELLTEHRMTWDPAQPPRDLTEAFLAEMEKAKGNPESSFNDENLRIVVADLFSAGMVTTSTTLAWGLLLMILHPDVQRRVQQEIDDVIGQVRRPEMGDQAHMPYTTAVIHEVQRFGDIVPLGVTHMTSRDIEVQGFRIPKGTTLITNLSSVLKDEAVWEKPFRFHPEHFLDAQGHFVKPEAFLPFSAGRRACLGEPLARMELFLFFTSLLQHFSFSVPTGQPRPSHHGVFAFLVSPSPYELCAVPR
T2 sequence (P08684 whole entry): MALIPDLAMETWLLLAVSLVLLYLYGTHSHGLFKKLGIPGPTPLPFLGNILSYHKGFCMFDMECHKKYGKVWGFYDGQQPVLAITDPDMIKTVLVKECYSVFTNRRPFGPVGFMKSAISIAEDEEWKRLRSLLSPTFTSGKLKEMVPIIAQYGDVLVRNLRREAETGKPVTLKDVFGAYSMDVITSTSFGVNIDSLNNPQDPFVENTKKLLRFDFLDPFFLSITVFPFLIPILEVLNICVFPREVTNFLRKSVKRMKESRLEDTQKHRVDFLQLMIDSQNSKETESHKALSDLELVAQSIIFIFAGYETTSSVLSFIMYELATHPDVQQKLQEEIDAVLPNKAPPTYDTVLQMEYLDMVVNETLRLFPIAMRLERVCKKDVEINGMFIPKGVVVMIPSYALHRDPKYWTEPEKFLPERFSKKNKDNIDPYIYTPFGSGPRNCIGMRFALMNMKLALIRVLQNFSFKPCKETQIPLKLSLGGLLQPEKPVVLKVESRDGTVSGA
T3 sequence (Q9NZQ7 19-238 limits assumed): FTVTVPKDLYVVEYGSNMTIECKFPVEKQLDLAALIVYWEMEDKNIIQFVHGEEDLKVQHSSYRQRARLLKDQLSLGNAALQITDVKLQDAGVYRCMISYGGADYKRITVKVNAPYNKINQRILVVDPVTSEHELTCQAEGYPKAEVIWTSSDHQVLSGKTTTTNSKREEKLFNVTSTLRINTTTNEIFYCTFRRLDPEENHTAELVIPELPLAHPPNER

IC50 [1]: > 10 µM | IC50 [2]: > 10 µM | IC50 [3]: < 100 nM | Caco-2 efflux [4]: high efflux | Caco-2 permeability [4]: medium permeable | fraction unbound at 4.5 h, 3 μM [5]: 0.039 | stability and recovery in plasma [6]: good
SMILES: COc1nc(OCc2cccc(-c3ccccc3)c2C)nc(OC)c1CN1CCCC[C@H]1C(=O)O [Compound 45, (S)-1-((4,6-dimethoxy-2-((2-methyl-[1,1′-biphenyl]-3-yl)methoxy)pyrimidin-5-yl)methyl)piperidine-2-carboxylic acid]
